From EP0547708A1, “Saccharin derivative proteolytic enzyme inhibitors” (STERLING WINTHROP INC., priority 1991, dated 1993)

Each compound was assayed against T1, human leukocyte elastase (Homo sapiens, UniProt P08246) (assay: Inhibition of human leukocyte elastase in vitro (Ki* = koff/kon)). Conditions: Ki* = koff/kon (rate of reactivation of the enzyme divided by rate of inactivation); koff and kon measured, Ki* then calculated.
T1 sequence (P08246 30-267): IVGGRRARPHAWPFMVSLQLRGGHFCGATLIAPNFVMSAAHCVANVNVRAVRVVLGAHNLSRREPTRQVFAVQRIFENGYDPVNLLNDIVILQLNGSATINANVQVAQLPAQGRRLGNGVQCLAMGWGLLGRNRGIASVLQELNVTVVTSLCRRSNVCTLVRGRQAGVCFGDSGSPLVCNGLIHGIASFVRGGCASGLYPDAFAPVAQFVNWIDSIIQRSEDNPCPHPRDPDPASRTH
Type: biochemical
Protocol: Ki*, which is defined as the rate of reactivation of the enzyme divided by the rate of inactivation of the enzyme (koff/kon), was therefore determined instead. The values of koff and kon were measured and Ki* was then calculated.
The value of kon was determined by measuring the enzyme activity of an aliquot of the enzyme as a function of the time after addition of the test compound (inhibitor). […] The value of kon was then obtained by the equation kon = kobs /[I] [formula] wherein [I] is the concentration of the inhibitor. The value of koff was similarly determined, and Ki* was then obtained by the equation Ki * = koff /kon [formula] .
With CC(C)c1cccc2c1C(=O)N(COC1=CC(=O)OC1)S2(=O)=O [Example 1A, 2-[(2,5-dihydro-5-oxo-3-furanyl)oxymethyl]-4-isopropylsaccharin] the Ki was 0.4 nM.
Work on CC(C)c1cccc2c1C(=O)N(COc1cc(=O)oc3ccccc13)S2(=O)=O [Example 1B] yielded a Ki of 0.22 nM.
In the case of CC(C)c1cccc2c1C(=O)N(COc1cc(=O)n(C)c3ccccc13)S2(=O)=O [Example 1C], the Ki is reported as 0.7 nM.
Cc1cc(OCN2C(=O)c3c(C(C)C)cccc3S2(=O)=O)cc(=O)o1 [Example 1D] was tested, and the Ki was 0.25 nM.
Cc1cc(OCN2C(=O)c3c(C(C)C)cccc3S2(=O)=O)c(C(=O)c2ccccc2)c(=O)o1 [Example 1E] gave a Ki of 0.035 nM.
CC(C)c1cccc2c1C(=O)N(COc1cc(-c3ccccc3)oc(=O)c1)S2(=O)=O [Example 1F] showed a Ki of 0.22 nM.
COc1cc(C(C)C)c2c(c1)S(=O)(=O)N(COC1=C(Cc3ccccc3)C(=O)OC1(C)C)C2=O [Example 1O] showed a Ki of 0.016 nM.
COc1cc(C(C)C)c2c(c1)S(=O)(=O)N(COC1=C(CN3CCOCC3)C(=O)OC1)C2=O [Example 1P] was tested, and the Ki was 0.041 nM.
COc1cc(C(C)C)c2c(c1)S(=O)(=O)N(COc1c(C(C)=O)c(=O)n(-c3ccccc3)c3ccccc13)C2=O [Example 3A, 2-(1-phenyl-3-acetylcarbostyryl-4-yl)oxymethyl-4-isopropyl-6-methoxysaccharin] was tested, and the Ki was 0.43 nM.
COc1cc(C(C)C)c2c(c1)S(=O)(=O)N(COc1c(C(C)=O)c(=O)n(C)c3ccccc13)C2=O [Example 3B, 2-(1-methyl-3-acetylcarbostyryl-4-yl)oxymethyl-4-isopropyl-6-methoxysaccharin] gave a Ki of 0.27 nM.
With COc1cc(C(C)C)c2c(c1)S(=O)(=O)N(COC1=CC(=O)OC1(C)C)C2=O [Example 4E] the Ki was 0.093 nM.
In the case of COc1cc(C(C)C)c2c(c1)S(=O)(=O)N(COC1=C(Oc3ccccc3)C(=O)N(c3ccccc3)C1)C2=O [Example 4F], the Ki is reported as 0.06 nM.
In the case of COc1cc(C(C)C)c2c(c1)S(=O)(=O)N(COC1=C(N3CCCCC3)C(=O)N(c3ccccc3)C1)C2=O [Example 4G], the Ki is reported as 0.2 nM.
COc1cc(C(C)C)c2c(c1)S(=O)(=O)N(COc1nc3ccccn3c(=O)c1CN1CCOCC1)C2=O [Example 5, 2-[3-(4-morpholinylmethyl)-4-oxo-4H-pyrido[1,2-a]pyrimidin-2-yl]oxymethyl-4-isopropyl-6-methoxysaccharin] gave a Ki of 0.23 nM.
Work on COc1cc(C(C)C)c2c(c1)S(=O)(=O)N(COC1=C(C)C(=O)C(C)=C(C)C1=O)C2=O [Example 6, 2-(3,5,6-trimethyl-1,4-dioxo-2,5-cyclohexadien-2-yl)oxymethyl-4-isopropyl-6-methoxysaccharin] yielded a Ki of 0.92 nM.
In the case of COc1cc(C(C)C)c2c(c1)S(=O)(=O)N(COC1=C(C(C)=O)C(=O)c3ccoc3C1=O)C2=O [Example 7, 2-(5-acctyl-4,7-dihydro-4,7-dioxobenzofuran-6-yl)oxymethyl-4-isopropyl-6-methoxysaccharin], the Ki is reported as 17 nM.
